Data published in patent publication US20040180322A1, “Regional intestinal permeability model” (priority 2000, published 2004).
Where a SMILES comes first, the peptide text is derived from it. [ ]: non-standard residue; d: D form. Sar = CNCC(=O)O

What was measured:
Caco-2 [1] = assay: Caco-2 transepithelial transport at different apical pH, buffers and CO2 incubation (Experiment Two); format: in vitro ADME; settings: for decrease of A to B Peff in the absence of CO2: Caco-2, pH 7.4 Ringers without CO2, pH shifted to 7.8-8.0; for increase of A to B Effective Permeability (Peff) on change of apical pH from 7.4 to 6.5 / decrease of A to B Effective Permeability (Peff) on change of apical pH from 7.4 to 6.5: Caco-2, apical pH 6.5 vs 7.4
Procedure: (§1) Methods. In vitro permeability of various transport marker compounds was investigated using different apical pH's (pH 7.4 and pH 6.5), different buffers (Ringers, Mes, and Hepes), and different incubation (with or without CO2) conditions. Caco-2 transepithelial transport studies were performed using a standardized 24-well transwell format (20-24 day culture/passage 30-40). The apical (A, 0.3 mL volume) and basolateral (B, 1.2 mL volume) reservoirs were filled with Ringer's buffer (pH 7.4, 290 mOsm/kg), containing 25 mM glucose. A→B and B→A permeability was studied at 37° C., 50 opm, 95% humidity, and 5% CO2 using a 100 μM donor concentration with 1% DMSO. Monolayer integrity was evaluated by transepithelial electrical resistance (TEER) measurements.

Caco-2 [2] = assay: Caco-2 transepithelial transport with apical FaSSIF versus Mes (Experiment Three); format: in vitro ADME; settings: for increase of A→B permeability with apical FaSSIF / increase of B→A permeability with apical FaSSIF: Caco-2, apical FaSSIF pH 6.5 compared with Mes pH 6.5
Procedure: Methods. […] Caco-2 transepithelial transport studies were performed using a standardized 24-well transwell format (20-24 day culture/passage 30-40). The transport experiments were performed using 0.3 mL apical solution either Ringers (pH 7.4), Mes (pH 6.5), or FaSSIF (pH 6.5, calcium free) and 1.2 mL basolateral solution (Ringer's buffer: pH 7.4, 290 mOsm/kg, 25 mM glucose). […] and B→A permeability was studied at 37° C., 50 opm, 95% humidity, and 5% CO2 using a 100 μM donor concentration with 1% DMSO. Monolayer integrity was evaluated by TEER measurements. Rabbit regional intestinal permeability studies were conducted using the Ussing side-by-side diffusion chamber, with volumes of 1.5 mL on each side. Intestinal segments (duodenum/jejunum/ileum/descending colon) were harvested from male New Zealand white rabbits (2.5-3.0 kg), stripped of the muscle layers and mounted in the chambers.

[3] = Caco-2 transepithelial transport at different apical pH, buffers and CO2 incubation (Experiment Two); format: in vitro ADME; settings: human
Procedure: as §1

Caco-2 [4] = assay: Inter-laboratory Caco-2 permeability values of marker compounds collected from references; format: in vitro ADME; settings: for variability of in vitro permeability values in inter-laboratory Caco-2: values from 10 references with various culture and transport conditions
Caco-2 [5] = settings: cited from earlier work; for range of in vitro permeability values in inter-laboratory Caco-2: values from 10 references with various culture and transport conditions
[6] = Caco-2 monolayer A to B permeability of marker compounds, standardized conditions (Experiment One); settings: human, Caco-2, pH 7.4

CC(C(=O)O)c1cccc(C(=O)c2ccccc2)c1 (stereo not drawn) [ketoprofen]
decrease of A to B Peff in the absence of CO2 (Caco-2 [1]): 2 ×

Nc1nc2c(ncn2COCCO)c(=O)[nH]1 [acyclovir]
increase of A→B permeability with apical FaSSIF (Caco-2 [2]): 3 fold

COc1cc([C@@H]2c3cc4c(cc3[C@@H](O[C@@H]3O[C@@H]5CO[C@@H](C)O[C@H]5[C@H](O)[C@H]3O)[C@H]3COC(=O)[C@H]23)OCO4)cc(OC)c1O [etoposide]
efflux ratio at 90 min, 100 μM ([3]; Caco-2, apical pH 6.5): 12 | efflux ratio at 90 min, 100 μM ([3]; Caco-2, apical pH 7.4): 8 | increase of A→B permeability with apical FaSSIF (Caco-2 [2]): 2 fold

CC(C)Cc1ccc(C(C)C(=O)O)cc1 (stereo not drawn) [ibuprofen]
increase of A to B Effective Permeability (Peff) on change of apical pH from 7.4 to 6.5 (Caco-2 [1]): 3 ×

OC[C@@H](O)[C@@H](O)[C@H](O)[C@H](O)CO [mannitol]
variability of in vitro Apparent Permeability (Papp) values from published references (Caco-2 [4]; published references): 345 fold | variability of in vitro permeability values in inter-laboratory Caco-2 (Caco-2 [4]): 9 fold | increase of A→B permeability with apical FaSSIF (Caco-2 [2]): 3 fold | increase of B→A permeability with apical FaSSIF (Caco-2 [2]): 11 fold | range of in vitro Apparent Permeability (Papp) values from published references (Caco-2 [5]; published references): 0.019-6.55 ×10^−6 cm/s | range of in vitro permeability values in inter-laboratory Caco-2 (Caco-2 [5]): 0.38-3.23 ×10^−6 cm/s | Papp A→B at 90 min, 100 μM [6]: 0.461 ×10⁻⁶ cm/s

CC(C)NCC(O)COc1cccc2ccccc12 (stereo not drawn) [propranolol]
variability of in vitro permeability values in inter-laboratory Caco-2 (Caco-2 [4]): 7 fold | efflux ratio at 90 min, 100 μM ([3]; Caco-2, apical pH 6.5): > 4 | decrease of A to B Effective Permeability (Peff) on change of apical pH from 7.4 to 6.5 (Caco-2 [1]): 3 × | range of in vitro permeability values in inter-laboratory Caco-2 (Caco-2 [5]): 14.8-110 ×10^−6 cm/s | Papp A→B at 90 min, 100 μM [6]: 28.7 ×10⁻⁶ cm/s

NC(=O)c1ncn([C@@H]2O[C@H](CO)[C@@H](O)[C@H]2O)n1 [ribavirin]
increase of A→B permeability with apical FaSSIF (Caco-2 [2]): 5 fold

Polyethylene Glycol [PEG 4000]
increase of A→B permeability with apical FaSSIF (Caco-2 [2]): 2 fold | increase of B→A permeability with apical FaSSIF (Caco-2 [2]): 2 fold

CC[C@]1(O)C[C@@H]2CN(CCc3c([nH]c4ccccc34)[C@@](C(=O)OC)(c3cc4c(cc3OC)N(C)[C@H]3[C@@](O)(C(=O)OC)[C@H](OC(C)=O)[C@]5(CC)C=CCN6CC[C@]43[C@@H]65)C2)C1 [vinblastine]
efflux ratio at 90 min, 100 μM ([3]; Caco-2, apical pH 6.5): 32 | efflux ratio at 90 min, 100 μM ([3]; Caco-2, apical pH 7.4): 4 | decrease of A to B Effective Permeability (Peff) on change of apical pH from 7.4 to 6.5 (Caco-2 [1]): 5 ×

CN(CC(=O)O)C(=O)CN [glycylsarcosine] (H-Gly-[Sar]-OH)
increase of A to B Effective Permeability (Peff) on change of apical pH from 7.4 to 6.5 (Caco-2 [1]): 6 × | decrease of A to B Peff in the absence of CO2 (Caco-2 [1]): 2 × | decrease of A→B permeability with apical FaSSIF (Caco-2 [2]; Caco-2, FaSSIF in apical compartment): 2 fold
